US12448369B2 (Edgewise Therapeutics, Inc., priority 2023, dated 2025)

What was measured:
[1] = test system: Porcine atria myofibrils (atrial myosin ATPase); test: Myofibril ATPase assay, porcine atria myofibrils; format: biochemical; details: porcine atria myofibrils
Summary of the method: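 Y75 (25% inhibition) or Y125 (activation) values come from 4-parameter logistic fits of vehicle-normalized rates. Rates are linear-regression slopes of NADH absorbance at 340 nm, read kinetically over 75 min, with ADP coupled to NADH oxidation via pyruvate kinase/lactate dehydrogenase.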

[2] = molecular target: T1, Porcine ventricle myofibrils (ventricular myosin ATPase) (Sus scrofa, UniProt P79293); test: Myofibril ATPase assay, porcine ventricle myofibrils; format: biochemical, porcine (Yucatan minipigs); details: porcine ventricle myofibrils
T1 construct: Myofibrils from porcine cardiac muscle was isolated from the left ventricle of Yucatan minipigs; tissue Exemplar Genetics; host or cells: left ventricle of Yucatan minipigs, myofibrils prepared in house
T1 sequence (P79293 whole entry): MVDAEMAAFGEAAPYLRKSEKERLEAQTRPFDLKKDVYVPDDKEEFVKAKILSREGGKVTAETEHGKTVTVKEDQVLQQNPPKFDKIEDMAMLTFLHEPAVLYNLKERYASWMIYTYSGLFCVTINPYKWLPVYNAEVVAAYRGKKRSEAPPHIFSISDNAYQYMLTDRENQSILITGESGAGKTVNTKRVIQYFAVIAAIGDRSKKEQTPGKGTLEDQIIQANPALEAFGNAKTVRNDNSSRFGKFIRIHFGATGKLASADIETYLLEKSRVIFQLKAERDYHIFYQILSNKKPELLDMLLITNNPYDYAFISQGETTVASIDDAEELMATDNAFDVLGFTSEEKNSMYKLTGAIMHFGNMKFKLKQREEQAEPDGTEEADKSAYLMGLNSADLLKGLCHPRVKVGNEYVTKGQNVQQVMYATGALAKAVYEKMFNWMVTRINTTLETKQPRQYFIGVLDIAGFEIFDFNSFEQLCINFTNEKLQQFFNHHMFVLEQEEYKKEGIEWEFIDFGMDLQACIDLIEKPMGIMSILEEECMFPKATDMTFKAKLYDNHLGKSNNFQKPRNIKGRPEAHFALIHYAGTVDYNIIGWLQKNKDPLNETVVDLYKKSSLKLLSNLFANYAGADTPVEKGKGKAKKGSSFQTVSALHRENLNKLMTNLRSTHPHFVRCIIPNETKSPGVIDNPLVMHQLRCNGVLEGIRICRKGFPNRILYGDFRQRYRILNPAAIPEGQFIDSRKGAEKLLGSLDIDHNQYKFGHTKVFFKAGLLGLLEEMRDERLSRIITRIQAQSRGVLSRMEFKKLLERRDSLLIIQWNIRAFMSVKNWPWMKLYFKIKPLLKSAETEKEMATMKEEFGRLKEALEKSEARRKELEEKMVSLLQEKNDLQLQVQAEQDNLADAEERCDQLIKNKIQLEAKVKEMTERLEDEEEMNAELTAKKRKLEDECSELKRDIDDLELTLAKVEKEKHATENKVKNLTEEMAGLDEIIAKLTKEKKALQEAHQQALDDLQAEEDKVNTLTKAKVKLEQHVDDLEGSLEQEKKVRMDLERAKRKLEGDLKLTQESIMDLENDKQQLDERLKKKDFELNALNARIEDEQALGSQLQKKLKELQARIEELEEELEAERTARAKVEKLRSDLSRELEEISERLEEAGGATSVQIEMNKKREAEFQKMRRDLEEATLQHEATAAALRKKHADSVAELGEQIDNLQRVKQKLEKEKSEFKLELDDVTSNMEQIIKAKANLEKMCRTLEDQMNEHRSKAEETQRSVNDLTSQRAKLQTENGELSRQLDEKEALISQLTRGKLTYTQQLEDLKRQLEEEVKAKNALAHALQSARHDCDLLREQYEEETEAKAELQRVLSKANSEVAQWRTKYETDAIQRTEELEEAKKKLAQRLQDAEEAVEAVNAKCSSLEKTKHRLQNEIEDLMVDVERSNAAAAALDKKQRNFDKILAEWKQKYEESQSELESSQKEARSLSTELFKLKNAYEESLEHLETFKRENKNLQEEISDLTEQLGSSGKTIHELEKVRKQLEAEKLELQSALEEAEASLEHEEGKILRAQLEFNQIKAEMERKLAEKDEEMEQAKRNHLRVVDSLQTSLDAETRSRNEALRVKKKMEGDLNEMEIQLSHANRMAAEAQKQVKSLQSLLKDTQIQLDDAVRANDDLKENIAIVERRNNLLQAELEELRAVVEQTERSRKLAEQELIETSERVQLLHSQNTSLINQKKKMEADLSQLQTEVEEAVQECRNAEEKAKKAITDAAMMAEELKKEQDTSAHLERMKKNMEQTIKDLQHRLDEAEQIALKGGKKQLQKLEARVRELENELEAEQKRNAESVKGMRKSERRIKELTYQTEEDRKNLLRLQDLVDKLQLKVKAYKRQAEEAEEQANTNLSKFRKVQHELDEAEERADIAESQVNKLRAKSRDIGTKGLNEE
Summary of the method: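 Left-ventricle myofibrils from Yucatan minipigs were tested with a PK/LDH-coupled system, following NADH loss at 340 nm every 1.5-2 min for 75 min. Slopes were normalized to vehicle wells and fit to a 4-parameter logistic model; values are Y75 (25% ATPase reduction) or Y125 concentrations.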

[3] = test system: Rabbit Psoas myofibrils (skeletal myosin ATPase); test: Myofibril ATPase assay, rabbit psoas (skeletal) myofibrils; format: biochemical; details: rabbit psoas myofibrils
Summary of the method: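 Values are concentrations giving 75% (Y75) or 125% (Y125) of vehicle ATPase activity, from 4-parameter logistic fits of normalized rates. Rates came from linear regression of A340 over 75 min, NADH oxidation coupled to ADP via PK-LDH. Enzyme source: skeletal myofibrils from rabbit psoas, pH 7.0 pCa buffer.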

[4] = Y75 value (75% activity relative to no compound)
[5] = ‡ Y125 value, not a Y75 value (125% activity relative to no compound)

| SMILES | Atrial EC25 ([1]; Y75 value (no ‡ mark)) [nM] | Ventricular EC25 ([2]; Y75 value (no ‡ mark)) [µM] | Skeletal EC25 ([3]; Y75 value (no ‡ mark)) [µM] | Atrial EC25 [1, 4] [nM] | Ventricular EC25 ([2]; Y75 value) [µM] | Skeletal EC25 ([3]; Y75 value) [µM] | Skeletal EC25 [3, 5] | Ventricular EC25 [2, 5] |
| --- | --- | --- | --- | --- | --- | --- | --- | --- |
| C[C@H](NC(=O)[C@H](C)c1cc2c(F)c(F)ccc2[nH]c1=O)c1ncc(C#N)cc1F (relative stereo) [compound 2604, (2R*)-N-[(1S)-1-(5-cyano-3-fluoropyridin-2-yl)ethyl]-2-(5,6-difluoro-2-oxo-1H-quinolin-3-yl)propanamide] | 120 | 0.75 | 0.54 |  |  |  |  |  |
| Cc1c(CC(=O)N[C@@H](C)c2ncc(C#N)cc2F)c(=O)[nH]c2ccc(F)c(C#N)c12 [compound 32] | 50 | 0.04 | 0.01 |  |  |  |  |  |
| Cc1c(C(C)C(=O)N[C@@H](C)c2ccc(F)cc2F)c(=O)[nH]c2ccncc12 (stereo partly drawn) [compound 440] |  |  |  | 34650 | 100.00 | 2.78 |  |  |
| Cc1c([C@@H](C)C(=O)N[C@@H](C)c2ccc(F)cc2F)c(=O)[nH]c2ccc(F)c(F)c12 (single isomer, unassigned) [compound 108] | 40 | 0.28 | 0.05 |  |  |  |  |  |
| Cc1cc(C#N)ncc1[C@@H](C)NC(=O)Cc1c(C)c2c(C)c(F)ccc2[nH]c1=O [compound 1044] | 60 | 0.10 | 0.02 |  |  |  |  |  |
| Cc1c(C2(C(=O)N[C@@H](C)c3ncc(C#N)cc3F)CC2)c(=O)[nH]c2ccc(F)cc12 (single isomer, unassigned) [compound 2597] | 90 | 0.39 | 0.12 |  |  |  |  |  |
| Cc1nccc2[nH]c(=O)c(CC(=O)N[C@H](C)c3ccc(C#N)cc3F)c(F)c12 [compound 148] |  |  |  | 1990 | 3.02 | 2.55 |  |  |
| Cc1nccc2[nH]c(=O)c(CC(=O)N[C@H](CO)c3ncc(C#N)cc3F)c(C)c12 (single isomer, unassigned) [compound 247] |  |  |  | 34930 | 100.00 | 4.60 |  |  |
| Cc1c(CC(=O)N[C@@H](C)c2ncc(C#N)cn2)c(=O)[nH]c2cccc(F)c12 (single isomer, unassigned) [compound 2042] | 550 | 2.11 | 2.39 |  |  |  |  |  |
| Cc1c(CC(=O)N[C@@H](C)c2ccc(F)cc2F)c(=O)[nH]c2ccnc(OCC(C)C)c12 [compound 371] |  |  |  | 3040 | 100.00 | 0.37 |  |  |
| Cc1nccc2[nH]c(=O)c(C(F)(F)C(=O)N[C@@H](CO)c3ncc(C#N)cc3F)c(C)c12 (single isomer, unassigned) [compound 3523] |  |  |  | 9760 | 21.66 | 8.73 |  |  |
| Cc1c(CC(=O)N[C@@H](C)c2ccc(F)cc2F)c(=O)[nH]c2ccnc(C(F)(F)F)c12 [compound 377] |  |  |  | 60 | 0.29 | 0.01 |  |  |
| Cc1nccc2[nH]c(=O)c([C@@H](C)C(=O)N[C@H](C)c3ccc(C#N)cc3F)c(C)c12 (single isomer, unassigned) [compound 183] |  |  |  | 330 | 6.37 | 0.75 |  |  |
| Cc1c(CC(=O)N[C@H](C)c2ncc(C#N)cc2F)c(=O)[nH]c2cccc(F)c12 [compound 51] | 230 | 0.40 | 0.06 |  |  |  |  |  |
| C[C@H](C(=O)N[C@H](C)c1ncc(C#N)cc1F)c1cc2c(F)c(F)ccc2[nH]c1=O (single isomer, unassigned) [compound 2599] | 2160 | 16.66 |  |  |  |  | 100.00‡ μM |  |
| Cc1c(C(F)(F)C(=O)N[C@@H]2COc3cc(C#N)cc(F)c32)c(=O)[nH]c2ccc(F)cc12 (single isomer, unassigned) [compound 2553] | 510 | 34.88 | 0.79 |  |  |  |  |  |
| C#Cc1nccc2[nH]c(=O)c(CC(=O)N[C@@H](C)c3ccc(F)cc3F)cc12 [compound 431] |  |  |  | 11130 | 50.88 | 0.80 |  |  |
| Cc1c(CC(=O)N[C@H](C)c2ccc(C#N)cc2F)c(=O)[nH]c2ccnc(OC3CC3)c12 [compound 201] |  |  |  | 100000 | 100.00 | 1.02 |  |  |
| Cc1nccc2[nH]c(=O)c(C(F)(F)C(=O)N[C@H](C)c3cnc(C#N)cn3)c(C)c12 (single isomer, unassigned) [compound 3520] |  |  |  | 2380 | 4.50 | 0.25 |  |  |
| Cc1nccc2[nH]c(=O)c(CC(=O)N[C@H](C)c3ccccn3)c(C)c12 (single isomer, unassigned) [compound 324] |  |  |  | 100000 | 100.00 | 100.00 |  |  |
| C[C@H](NC(=O)Cc1cc2cc(F)c(F)cc2[nH]c1=O)c1cnc(C#N)cn1 [compound 1099] | 7610 | 49.75 | 4.41 |  |  |  |  |  |
| Cc1cc([C@H](C)NC(=O)Cc2c(O)c3c(C)c(F)ccc3[nH]c2=O)ncc1F [compound 1117] | 100000 | 46.61 | 100.00 |  |  |  |  |  |
| Cc1c(CC(=O)N[C@@H](C)c2ncc(C#N)cc2F)c(=O)[nH]c2cccc(C#N)c12 [compound 1081] | 120 | 0.28 | 0.03 |  |  |  |  |  |
| Cc1cc(F)cc(F)c1[C@H](C)NC(=O)Cc1c(C)c2c(C)nccc2[nH]c1=O (single isomer, unassigned) [compound 403] |  |  |  | 40230 | 2.08 | 0.19 |  |  |
| Cc1nnccc1C(C)NC(=O)Cc1cc2cc(F)c(F)cc2[nH]c1=O (stereo not drawn) [compound 2073] | 100000 | 100.00 | 100.00 |  |  |  |  |  |
| Cc1nccc2[nH]c(=O)c(CC(=O)N[C@H](C)c3cccnc3O)c(C)c12 (single isomer, unassigned) [compound 302] |  |  |  | 100000 | 100.00 | 100.00 |  |  |
| C[C@H](NC(=O)[C@@H](C)c1cc2cc(F)ccc2[nH]c1=O)c1ccc(F)cc1F (single isomer, unassigned) [compound 2608] | 100000 |  | 100.00 |  |  |  |  | 44.26‡ μM |
| C[C@@H](NC(=O)Cc1c(C(F)(F)F)c2c(C3CC3)nccc2[nH]c1=O)c1ncc(C#N)cn1 (single isomer, unassigned) [compound 3001] |  |  |  | 1250 | 17.65 | 4.13 |  |  |
| Cc1c(CC(=O)N[C@@H](C)c2ccc(C#N)nn2)c(=O)[nH]c2ccc(F)cc12 [compound 1120] | 2580 | 10.61 | 2.90 |  |  |  |  |  |
| Cc1nc(C#N)ncc1[C@@H](C)NC(=O)Cc1cc2cc(F)c(F)cc2[nH]c1=O [compound 1096] | 31810 | 100.00 | 12.10 |  |  |  |  |  |
